Data: patent US9738932B2, “Biomarkers for cardiovascular side-effects induced by cox-2 inhibitory compounds” (FIRALIS SAS, priority 2005, dated 2017)
Entries after “also recorded” stand apart in the source; their conditions may differ.

What was measured:
[1] = test system: veins (vascular tissue); experiment: Histopathological evaluation of tissues of treated monkeys; assay type: in vivo, cynomolgus monkey (Macaca fascicularis); details: animal A60055, 50 mg/kg/day oral gavage, two weeks
From the text: Administration of compounds.
Gene expression profiles.

[2] = test system: INFγ; experiment: ELISA of INFγ protein in monkey serum and plasma; assay type: in vivo, cynomolgus monkey (Macaca fascicularis); details: monkey #A60055
From the text: FIG. 7. ELISA confirmation of INFγ protein level in monkey serum and plasma samples.
These peripheral biomarkers might allow safe use of cox-2 inhibitory compounds in clinics and selection of cox-2 inhibitory follow-up compounds without cardiovascular toxicity.

**Q.** For CS(=O)(=O)c1ccc(C2=C(c3ccccc3)C(=O)OC2)cc1 [Vioxx®, rofecoxib], which histopathological vascular findings [1] is on record?
**A.** focal vascular necrosis in the veins; also recorded: clear sign of vasculitis in veins

**Q.** And the “INFγ protein expression by ELISA” value [2]?
**A.** Increased expression
